The source of these data is patent US20230374038A1, “MODULATORS OF CYSTIC FIBROSIS TRANSMEMBRANE CONDUCTANCE REGULATOR” (VERTEX PHARMACEUTICALS INCORPORATED, priority 2020, published 2023).

The assay addresses CFTR (Homo sapiens, UniProt P13569). Put plainly: Membrane Potential Dye, Enteroid Assay B. Format: cell-based. Conditions: for pEC50: read-out: Ent. B EC50. The procedure:
Base medium (ADF+++) consisted of Advanced DMEM/Ham's F12, 2 mM Glutamax, 10 mM HEPES, 1 µg/mL penicillin/streptomycin.
Intestinal enteroid maintenance medium (IEMM) consisted of ADF+++, 1× B27 supplement, 1× N2 supplement, 1.25 mM N-acetyl cysteine, 10 mM Nicotinamide, 50 ng/mL hEGF, 10 nM Gastrin, 1 pg/mL hR-spondin-1, 100 ng/mL hNoggin, TGF-b type 1 inhibitor A-83-01, 100 μg/mL Primocin, […] P38 MAPK inhibitor SB202190.
Bath 1 Buffer consisted of 1 mM MgCl2, 160 mM NaCl, 4.5 mM KCl, 10 mM HEPES, 10 mM Glucose, 2 mM CaCl2).
Chloride Free Buffer consisted of 1 mM Magnesium Gluconate, 2 mM Calcium Gluconate, 4.5 mM Potassium Gluconate, 160 mM Sodium Gluconate, 10 mM HEPES, 10 mM Glucose.
Bath1 Dye Solution consisted of Bath 1 Buffer, 0.04% Pluronic F127, […] Methyl Oxonol, 30 μM CaCCinh-A01, 30 μM Chicago Sky Blue.
Chloride Free Dye Solution consisted of Chloride Free Buffer, 0.04% Pluronic F127, 20 μM Methyl Oxonol, 30 μM CaCCinh-A01, 30 μM Chicago Sky Blue.
Chloride Free Dye Stimulation Solution consisted of Chloride Free Dye Solution, 10 μM forskolin, 100 μM IBMX, and 300 nM Compound III.
Human intestinal epithelial enteroid cells were obtained from the Hubrecht Institute for Developmental Biology and Stem Cell Research, Utrecht, The Netherlands and expanded in T-Flasks as previously described (Dekkers J F, Wiegerinck C L, de Jonge H R, Bronsveld I, Janssens H M, de Winter-de Groot K M, Brandsma A M, de Jong N W M, Bijvelds M J C, Scholte B J, Nieuwenhuis E E S, van den Brink S, Clevers H, van der Ent C K, Middendorp S and M Beekman J M. A functional CFTR assay using primary cystic fibrosis intestinal organoids. Nat Med. 2013 July; 19(7):939-45.).
Cells were recovered in cell recovery solution, collected by centrifugation at 650 rpm for 5 min at 4° C., resuspended in TryPLE and incubated for 5 min at 37° C. Cells were then collected by centrifugation at 650 rpm for 5 min at 4° C. and resuspended in IEMM containing 10 μM ROCK inhibitor (RI). The cell suspension was passed through a 40 μm cell strainer and resuspended at 1×10^6 cells/mL in IEMM containing 10 μM RI. Cells were seeded at 5000 cells/well into multi-well plates and incubated for overnight at 37° C., 95% humidity and 5% CO2 prior to assay.
Enteroid cells were incubated with test compound in IEMM for 18-24 hours at 37° C., 95% humidity and 5% CO2. […] Briefly, cells were washed 5 times in Bath 1 Buffer. Bath 1 Dye Solution was added and the cells were incubated for 25 min at room temperature. Following dye incubation, cells were washed 3 times in Chloride Free Dye Solution. Chloride transport was initiated by addition of Chloride Free Dye Stimulation Solution and the fluorescence signal was read for 15 min. […] Chloride transport was then expressed as a percentage of the chloride transport following treatment with 1 μM (14S)-8-[3-(2-{Dispiro[2.0.2.1]heptan-7-yl}ethoxy)-1H-pyrazol-1-yl]-12,12-dimethyl-2λ^6-thia-3,9,11,18,23-pentaazatetracyclo[17.3.1.111,14.05,10]tetracosa-1(22),5,7,9,19(23),20-hexaene-2,2,4-trione, 3 μM (R)-1-(2,2-difluorobenzo[d][1,3]dioxol-5-yl)-N-(1-(2,3-dihydroxypropyl)-6-fluoro-2-(1-hydroxy-2-methylpropan-2-yl)-1H-indol-5-yl)cyclopropanecarboxamide and 300 nM acute N-[2,4-bis(1,1-dimethylethyl)-5-hydroxyphenyl]-1,4-dihydro-4-oxoquinoline-3-carboxamide triple combination control (% Activity).

pEC50: −log10 of the molar value. Bounds are passed on as bounds.

Sequence of CFTR (P13569 with tags, fused parts or gaps DEL508-508): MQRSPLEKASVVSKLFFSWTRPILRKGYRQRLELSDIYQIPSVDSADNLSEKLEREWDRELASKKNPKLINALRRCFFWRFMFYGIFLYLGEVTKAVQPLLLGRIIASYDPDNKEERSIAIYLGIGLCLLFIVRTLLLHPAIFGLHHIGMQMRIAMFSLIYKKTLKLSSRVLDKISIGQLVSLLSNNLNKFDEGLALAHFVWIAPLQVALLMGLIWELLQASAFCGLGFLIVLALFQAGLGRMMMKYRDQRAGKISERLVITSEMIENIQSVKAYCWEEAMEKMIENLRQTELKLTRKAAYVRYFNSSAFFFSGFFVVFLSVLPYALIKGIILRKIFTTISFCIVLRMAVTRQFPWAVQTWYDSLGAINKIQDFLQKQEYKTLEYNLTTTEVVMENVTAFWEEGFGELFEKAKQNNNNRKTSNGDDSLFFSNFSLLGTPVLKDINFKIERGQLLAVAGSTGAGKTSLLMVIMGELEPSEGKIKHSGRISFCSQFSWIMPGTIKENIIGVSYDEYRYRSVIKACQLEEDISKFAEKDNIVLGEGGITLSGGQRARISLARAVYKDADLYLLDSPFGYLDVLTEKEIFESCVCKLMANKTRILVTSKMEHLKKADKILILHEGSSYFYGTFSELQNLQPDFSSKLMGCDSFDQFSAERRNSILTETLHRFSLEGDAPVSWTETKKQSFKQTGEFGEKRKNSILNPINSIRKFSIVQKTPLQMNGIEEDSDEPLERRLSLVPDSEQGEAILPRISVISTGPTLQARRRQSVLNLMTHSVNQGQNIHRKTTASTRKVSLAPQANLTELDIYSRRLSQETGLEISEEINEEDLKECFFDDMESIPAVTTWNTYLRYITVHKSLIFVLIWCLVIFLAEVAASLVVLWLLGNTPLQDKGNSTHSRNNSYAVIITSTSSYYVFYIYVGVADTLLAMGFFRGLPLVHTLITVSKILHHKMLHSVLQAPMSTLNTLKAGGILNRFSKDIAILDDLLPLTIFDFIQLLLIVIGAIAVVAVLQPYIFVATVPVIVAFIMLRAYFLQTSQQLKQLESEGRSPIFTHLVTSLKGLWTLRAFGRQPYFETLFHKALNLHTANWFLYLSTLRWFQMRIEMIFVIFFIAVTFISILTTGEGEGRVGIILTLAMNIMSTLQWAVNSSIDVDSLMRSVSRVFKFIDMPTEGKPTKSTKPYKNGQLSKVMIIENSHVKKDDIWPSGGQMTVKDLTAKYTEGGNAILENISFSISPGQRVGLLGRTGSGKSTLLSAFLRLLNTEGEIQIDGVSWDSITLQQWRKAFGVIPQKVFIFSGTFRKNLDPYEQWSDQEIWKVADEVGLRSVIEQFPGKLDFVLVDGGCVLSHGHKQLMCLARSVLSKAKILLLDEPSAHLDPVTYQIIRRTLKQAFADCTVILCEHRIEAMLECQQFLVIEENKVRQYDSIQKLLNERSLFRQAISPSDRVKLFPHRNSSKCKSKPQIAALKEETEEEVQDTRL

As a reminder, the pEC50 is the negative decadic logarithm of the EC50, by convention in mol/L. Turning to `COC(=O)NC1CC2(C1)CC(N1C(=O)c3cccc(c3)S(=O)(=O)Nc3nc(c(C)c(-c4c(C)cccc4C)n3)OC[C@H]1CC1(C(F)(F)F)CC1)C2` (stereo in doubt) [Compound 88], the “Ent. B Max Activity” value is listed as “+++ (+++ is >60%)” and the pEC50 is > 6.00.
The matching figures for `Cc1cccc(C)c1-c1nc2nc(c1C)OC[C@@H](CC1(C(F)(F)F)CC1)N(C1CC3(CC(NC(=O)OC(C)C)C3)C1)C(=O)c1cccc(c1)S(=O)(=O)N2` (stereo in doubt) [Compound 89]: “+++ (+++ is >60%)” and > 6.00.
Taken in the same sequence, the figures for `Cc1cccc(C)c1-c1nc2nc(c1C)OC[C@@H](CC1(C(F)(F)F)CC1)N(C1CC3(CC(N(C)C)C3)C1)C(=O)c1cccc(c1)S(=O)(=O)N2` (stereo in doubt) [Compound 90] were “+++ (+++ is >60%)” and > 6.00.
For `Cc1cccc(C)c1-c1nc2nc(c1C)OC[C@@H](CC1(C(F)(F)F)CC1)N(C1CC3(CC(N(C)C)C3)C1)C(=O)c1cccc(c1)S(=O)(=O)N2` (stereo in doubt) [Compound 91], the “Ent. B Max Activity” value is “+++ (+++ is >60%)” and the pEC50 is > 6.00.
The matching figures for `Cc1cccc(C)c1-c1nc2nc(c1C)OC[C@@H](CC1(C(F)(F)F)CC1)N(C1CC3(CC(NC(=O)OC(C)(C)C)C3)C1)C(=O)c1cccc(c1)S(=O)(=O)N2` (stereo in doubt) [Compound 97]: “+++ (+++ is >60%)” and > 6.00.
For the compound `Cc1cccc(C)c1-c1nc2nc(c1C)OC[C@@H](CC1(C(F)(F)F)CC1)N(C1CC3(CC(NC(=O)OC(C)(C)C)C3)C1)C(=O)c1cccc(c1)S(=O)(=O)N2` (stereo in doubt) [Compound 98], the “Ent. B Max Activity” value is on record as “+++ (+++ is >60%)” and the pEC50 is > 6.00.
Regarding `Cc1cccc(C)c1-c1nc2nc(c1C)OCCNC(=O)c1cccc(c1)S(=O)(=O)N2` [Compound 35, 6-(2,6-Dimethylphenyl)-7-methyl-9-oxa-2λ^6-thia-3,5,12,19-tetraazatricyclo[12.3.1.14,8]nonadeca-1(18),4,6,8(19),14,16-hexaene-2,2,13-trione], the “Ent. B Max Activity” value is listed as “++ (++ is 30-60%)” and the pEC50 is 4.52 to 5.52.
Taken in the same sequence, the figures for `Cc1cccc(C)c1-c1nc2nc(c1C)OCCN(C1CC3(CC(NC(=O)OC(C)(C)C)C3)C1)C(=O)c1cccc(c1)S(=O)(=O)N2` (stereo not shown) [Compound 37] were “++ (++ is 30-60%)” and > 6.00.
In the case of `Cc1cccc(C)c1-c1nc2nc(c1C)OCCCN(C1CC3(CC(NC(=O)OC(C)(C)C)C3)C1)C(=O)c1cccc(c1)S(=O)(=O)N2` (stereo not shown) [Compound 38], the “Ent. B Max Activity” value is on record as “+ (+ is <30%)” and the pEC50 was > 6.00.
Taken in the same sequence, the figures for `COCCN1CCC2(CC1)CC(N1C(=O)c3cccc(c3)S(=O)(=O)Nc3nc(c(C)c(-c4c(C)cccc4C)n3)OC[C@H]1CC(C)C)C2` [Compound 55, (11R)-6-(2,6-Dimethylphenyl)-11-isobutyl-12-[7-(2-methoxyethyl)-7-azaspiro[3.5]nonan-2-yl]-7-methyl-2,2-dioxo-9-oxa-2λ^6-thia-3,5,12,19-tetrazatricyclo[12.3.1.14,8]nonadeca-1(18),4(19),5,7,14,16-hexaen-13-one] were “+++ (+++ is >60%)” and > 6.00.
`Cc1cccc(C)c1-c1nc2nc(c1C)OC[C@@H](CC(C)C)N(C1CC3(CCN(C(=O)OC(C)C)CC3)C1)C(=O)c1cccc(c1)S(=O)(=O)N2` [Compound 70]: the “Ent. B Max Activity” value is on record as “+++ (+++ is >60%)” and the pEC50 was > 6.00.
As for `Cc1cccc(C)c1-c1nc2nc(c1C)OC[C@@H](CC(C)C)NC(=O)c1cccc(c1)S(=O)(=O)N2` [Compound 73], the “Ent. B Max Activity” value is recorded as “+++ (+++ is >60%)” and the pEC50 is > 6.00.
Consider `Cc1cccc(C)c1-c1nc2nc(c1C)OC[C@@H](CC(C)C)N(C1CC3(CCN(C)CC3)C1)C(=O)c1cccc(c1)S(=O)(=O)N2` [Compound 74], for which the “Ent. B Max Activity” value was “+++ (+++ is >60%)” and the pEC50 was > 6.00.
Turning to `Cc1cccc(C)c1-c1nc2nc(c1C)OC[C@@H](CC(C)C)N(C1CC3(CC3)C1)C(=O)c1cccc(c1)S(=O)(=O)N2` [Compound 75], the “Ent. B Max Activity” value is “+++ (+++ is >60%)” and the pEC50 is > 6.00.
For `Cc1cccc(C)c1-c1nc2nc(c1C)OC[C@@H](CC1(C(F)(F)F)CC1)N(C1CC3(CCN(C(=O)OC(C)C)CC3)C1)C(=O)c1cccc(c1)S(=O)(=O)N2` [Compound 76], the “Ent. B Max Activity” value is on record as “+++ (+++ is >60%)” and the pEC50 was > 6.00.
Consider `Cc1cccc(C)c1-c1nc2nc(c1C)OC[C@@H](CC(C)(C)C)N(C1CC3(CCN(C(=O)OC(C)C)CC3)C1)C(=O)c1cccc(c1)S(=O)(=O)N2` [Compound 77], for which the “Ent. B Max Activity” value is listed as “+++ (+++ is >60%)” and the pEC50 was > 6.00.
Taken in the same sequence, the figures for `Cc1cccc(C)c1-c1nc2nc(c1C)OC[C@@H](CC1(C(F)(F)F)CC1)N(C1CC3(CC(CO)C3)C1)C(=O)c1cccc(c1)S(=O)(=O)N2` (stereo partly shown) [Compound 80] were “+++ (+++ is >60%)” and > 6.00.
Taken in the same sequence, the figures for `Cc1cccc(C)c1-c1nc2nc(c1C)OC[C@@H](CC1(C(F)(F)F)CC1)N(C1CC3(CC(CO)C3)C1)C(=O)c1cccc(c1)S(=O)(=O)N2` (stereo partly shown) [Compound 81] were “+++ (+++ is >60%)” and > 6.00.
With `Cc1cccc(C)c1-c1nc2nc(c1C)OC[C@@H](CC(C)(C)C)N(C1CC3(CCN(C(=O)OC(C)(C)C)CC3)C1)C(=O)c1cccc(c1)S(=O)(=O)N2` [Compound 82], the “Ent. B Max Activity” value is recorded as “+++ (+++ is >60%)” and the pEC50 was > 6.00.
Taken in the same sequence, the figures for `COC1CC(N2C(=O)c3cccc(c3)S(=O)(=O)Nc3nc(c(C)c(-c4c(C)cccc4C)n3)OC[C@H]2CC(C)(C)C)C1` (stereo partly shown) [Compound 83] were “+++ (+++ is >60%)” and > 6.00.
The matching figures for `COC1CC(N2C(=O)c3cccc(c3)S(=O)(=O)Nc3nc(c(C)c(-c4c(C)cccc4C)n3)OC[C@H]2CC(C)(C)C)C1` (stereo partly shown) [Compound 84]: “+++ (+++ is >60%)” and > 6.00.
Taken in the same sequence, the figures for `Cc1cccc(C)c1-c1nc2nc(c1C)OC[C@@H](CC1(C(F)(F)F)CC1)N(C1CC3(CC(N)C3)C1)C(=O)c1cccc(c1)S(=O)(=O)N2` (stereo partly shown) [Compound 92] were “+++ (+++ is >60%)” and > 6.00.
On to `Cc1cccc(C)c1-c1nc2nc(c1C)OC[C@@H](CC1(C(F)(F)F)CC1)N(C1CC3(CC(N)C3)C1)C(=O)c1cccc(c1)S(=O)(=O)N2` (stereo partly shown) [Compound 93], for which the “Ent. B Max Activity” value was “+++ (+++ is >60%)” and the pEC50 was > 6.00.
Taken in the same sequence, the figures for `Cc1cccc(C)c1-c1nc2nc(c1C)OC[C@@H](CC(C)(C)C)N(C1CC3(CC(N(C)C)C3)C1)C(=O)c1cccc(c1)S(=O)(=O)N2` (stereo partly shown) [Compound 94] were “+++ (+++ is >60%)” and > 6.00.
The matching figures for `Cc1cccc(C)c1-c1nc2nc(c1C)OC[C@@H](CC(C)(C)C)N(C1CC3(CC(N(C)C)C3)C1)C(=O)c1cccc(c1)S(=O)(=O)N2` (stereo partly shown) [Compound 95]: “+++ (+++ is >60%)” and > 6.00.
As for `Cc1cccc(C)c1-c1nc2nc(c1C)OC[C@@H](CC(C)(C)C)N(C1CC3(CC(N)C3)C1)C(=O)c1cccc(c1)S(=O)(=O)N2` (stereo partly shown) [Compound 96], the “Ent. B Max Activity” value is “+++ (+++ is >60%)” and the pEC50 is > 6.00.
